{"source": "PubChem BioAssay (NCI)", "assay_in_all_cases": "DTP human tumour cell line panel, 48 h", "key": {"[1]": {"system": "786-0 renal"}, "[2]": {"system": "A498 renal"}, "[3]": {"system": "A549 NSCLC"}, "[4]": {"system": "ACHN renal"}, "[5]": {"system": "BT-549 breast"}, "[6]": {"system": "CAKI-1 renal"}, "[7]": {"system": "CCRF-CEM leukemia"}, "[8]": {"system": "COLO 205 colon"}, "[9]": {"system": "DU-145 prostate"}, "[10]": {"system": "EKVX NSCLC"}, "[11]": {"system": "HCC-2998 colon"}, "[12]": {"system": "HCT-116 colon"}, "[13]": {"system": "HCT-15 colon"}, "[14]": {"system": "HL-60(TB) leukemia"}, "[15]": {"system": "HOP-62 NSCLC"}, "[16]": {"system": "HOP-92 NSCLC"}, "[17]": {"system": "HS 578T breast"}, "[18]": {"system": "HT29 colon"}, "[19]": {"system": "IGROV1 ovarian"}, "[20]": {"system": "K-562 leukemia"}, "[21]": {"system": "KM12 colon"}, "[22]": {"system": "LOX IMVI melanoma"}, "[23]": {"system": "M14 melanoma"}, "[24]": {"system": "MALME-3M melanoma"}, "[25]": {"system": "MCF7 breast"}, "[26]": {"system": "MDA-MB-231 breast"}, "[27]": {"system": "MDA-MB-435"}}, "note": "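Values below derive from 48-hour exposures of cells grown in 96-well plates, with endpoints linearly interpolated between the two concentrations bracketing the appropriate inhibition level. GI50 = concentration required for 50% inhibition of growth. TGI denotes the concentration required for complete inhibition of growth.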"}
{"smiles": "COc1cc2c(cc1OC)C(Sc1ccc(F)cc1)c1c(nc(N)c(C#N)c1N)O2", "note": "(stereo not drawn)", "values": [{"measurement": "GI50", "setting": "[1]", "result": 1090, "unit": "nM"}, {"measurement": "TGI", "setting": "[1]", "result": 2320, "unit": "nM"}, {"measurement": "GI50", "setting": "[2]", "result": 1290, "unit": "nM"}, {"measurement": "TGI", "setting": "[2]", "result": 2570, "unit": "nM"}, {"measurement": "GI50", "setting": "[3]", "result": 1530, "unit": "nM"}, {"measurement": "TGI", "setting": "[3]", "result": 3000, "unit": "nM"}, {"measurement": "GI50", "setting": "[4]", "result": 1610, "unit": "nM"}, {"measurement": "TGI", "setting": "[4]", "result": 2980, "unit": "nM"}, {"measurement": "GI50", "setting": "[5]", "result": 760, "unit": "nM"}, {"measurement": "TGI", "setting": "[5]", "result": 2170, "unit": "nM"}, {"measurement": "GI50", "setting": "[6]", "result": 1040, "unit": "nM"}, {"measurement": "TGI", "setting": "[6]", "result": 2220, "unit": "nM"}, {"measurement": "GI50", "setting": "[7]", "result": 164, "unit": "nM"}, {"measurement": "TGI", "setting": "[7]", "result": "> 100000", "unit": "nM"}, {"measurement": "GI50", "setting": "[8]", "result": 1100, "unit": "nM"}, {"measurement": "TGI", "setting": "[8]", "result": 2470, "unit": "nM"}, {"measurement": "GI50", "setting": "[9]", "result": 1580, "unit": "nM"}, {"measurement": "TGI", "setting": "[9]", "result": 2920, "unit": "nM"}, {"measurement": "GI50", "setting": "[10]", "result": 1460, "unit": "nM"}, {"measurement": "TGI", "setting": "[10]", "result": 2840, "unit": "nM"}, {"measurement": "GI50", "setting": "[11]", "result": 1510, "unit": "nM"}, {"measurement": "TGI", "setting": "[11]", "result": 2970, "unit": "nM"}, {"measurement": "GI50", "setting": "[12]", "result": 780, "unit": "nM"}, {"measurement": "TGI", "setting": "[12]", "result": 2140, "unit": "nM"}, {"measurement": "GI50", "setting": "[13]", "result": 399, "unit": "nM"}, {"measurement": "TGI", "setting": "[13]", "result": 1660, "unit": "nM"}, {"measurement": "GI50", "setting": "[14]", "result": 319, "unit": "nM"}, {"measurement": "TGI", "setting": "[14]", "result": 1280, "unit": "nM"}, {"measurement": "GI50", "setting": "[15]", "result": 1710, "unit": "nM"}, {"measurement": "TGI", "setting": "[15]", "result": 3190, "unit": "nM"}, {"measurement": "GI50", "setting": "[16]", "result": 1190, "unit": "nM"}, {"measurement": "TGI", "setting": "[16]", "result": 2640, "unit": "nM"}, {"measurement": "GI50", "setting": "[17]", "result": 1680, "unit": "nM"}, {"measurement": "TGI", "setting": "[17]", "result": 4920, "unit": "nM"}, {"measurement": "GI50", "setting": "[18]", "result": 1600, "unit": "nM"}, {"measurement": "TGI", "setting": "[18]", "result": 3210, "unit": "nM"}, {"measurement": "GI50", "setting": "[19]", "result": 534, "unit": "nM"}, {"measurement": "TGI", "setting": "[19]", "result": 1950, "unit": "nM"}, {"measurement": "GI50", "setting": "[20]", "result": 426, "unit": "nM"}, {"measurement": "TGI", "setting": "[20]", "result": "> 100000", "unit": "nM"}, {"measurement": "GI50", "setting": "[21]", "result": 1480, "unit": "nM"}, {"measurement": "TGI", "setting": "[21]", "result": 2900, "unit": "nM"}, {"measurement": "GI50", "setting": "[22]", "result": 325, "unit": "nM"}, {"measurement": "TGI", "setting": "[22]", "result": 1090, "unit": "nM"}, {"measurement": "GI50", "setting": "[23]", "result": 1160, "unit": "nM"}, {"measurement": "TGI", "setting": "[23]", "result": 2490, "unit": "nM"}, {"measurement": "GI50", "setting": "[24]", "result": 1200, "unit": "nM"}, {"measurement": "TGI", "setting": "[24]", "result": 2540, "unit": "nM"}, {"measurement": "GI50", "setting": "[25]", "result": 477, "unit": "nM"}, {"measurement": "TGI", "setting": "[25]", "result": 2040, "unit": "nM"}, {"measurement": "GI50", "setting": "[26]", "result": 1360, "unit": "nM"}, {"measurement": "TGI", "setting": "[26]", "result": 2700, "unit": "nM"}, {"measurement": "GI50", "setting": "[27]", "result": 1220, "unit": "nM"}]}
